Results reported in ChEMBL document CHEMBL5247613, “Design, synthesis and biological evaluation of a new class of Hsp90 inhibitors vibsanin C derivatives” (Eur J Med Chem, 2022).
The source made the active and inactive calls. No cut-off for these calls is given here.

Columns and labels:
MCF7 = assay: Antiproliferative activity against human MCF7 cells assessed as reduction in cell viability incubated for 48 hrs by MTT assay; format: functional, cell-based; details: MCF7, 48 h
A549 = assay: Antiproliferative activity against human A549 cells assessed as reduction in cell viability incubated for 48 hrs by MTT assay; format: functional, cell-based; details: A549, 48 h
SMMC-7721 = assay: Antiproliferative activity against human SMMC-7721 cells assessed as reduction in cell viability incubated for 48 hrs by MTT assay; format: functional, cell-based; details: SMMC-7721, 48 h
HL-60 = assay: Antiproliferative activity against human HL-60 cells assessed as reduction in cell viability incubated for 48 hrs by MTT assay; format: functional, cell-based; details: HL-60, 48 h
SW480 = assay: Antiproliferative activity against human SW480 cells assessed as reduction in cell viability incubated for 48 hrs by MTT assay; format: functional, cell-based; details: SW480, 48 h
[1] = Inhibition of HSP90 in rabbit reticulocyte lysates incubated for 3 hrs by denatured luciferase refolding assay; format: subcellular, Oryctolagus cuniculus
Reticulocyte [2] = assay: Inhibition of HSP90 in rabbit reticulocyte lysates at 10 uM incubated for 3 hrs by denatured luciferase refolding assay; format: subcellular; details: Oryctolagus cuniculus
Reticulocyte [3] = assay: Inhibition of HSP90 in rabbit reticulocyte lysates at 500 uM incubated for 3 hrs by denatured luciferase refolding assay; format: subcellular; details: Oryctolagus cuniculus
[4] = target: T1, Heat shock protein HSP90 (Homo sapiens) (UniProt P07900+P08238); assay: Inhibition of HSP90 in human HL-60 cells assessed as increase in HSP27 protein expression incubated for 24 hrs by western blot analysis; format: cell-based; details: dose 1-10 µM
[5] = target: T1, Heat shock protein HSP90 (Homo sapiens); assay: Inhibition of HSP90 in human HL-60 cells assessed as decrease in CDK4 protein expression incubated for 24 hrs by western blot analysis; format: cell-based; details: dose 1-10 µM
[6] = target: T1, Heat shock protein HSP90 (Homo sapiens); assay: Binding affinity to full length HSP90 (unknown origin) expressed in Escherichia coli BL21(DE3) cells at 20 uM by NMR STD assay

inhibition (Reticulocyte [2])	SMILES	other results
77.8%	CC(C)=CCC[C@@]1(C)CC=C(CF)c2nnc(C)cc2[C@@H]1/C=C/OC(=O)C=C(C)C	IC50 (MCF7): 17.6 µM; IC50 (A549): 20.5 µM; IC50 (SMMC-7721): 15.7 µM; IC50 (HL-60): 3.45 µM; IC50 (SW480): 18.2 µM; IC50 [1]: 0.37 µM
20.1%	CC(C)=CCC[C@@]1(C)CC=C(CN2CCN(C(C)C)CC2)c2nnc(C)cc2[C@@H]1/C=C/OC(=O)C=C(C)C	–
66.8%	CC(=O)C[C@@H]1C(=O)C(COC(=O)CCC(=O)O)=CC[C@](C)(CCC=C(C)C)[C@H]1/C=C/OC(=O)C=C(C)C	IC50 [1]: 7.52 µM
61.8%	CC(=O)C[C@@H]1C(=O)C(COC(=O)c2cc(Cl)ccc2N)=CC[C@](C)(CCC=C(C)C)[C@H]1/C=C/OC(=O)C=C(C)C	IC50 [1]: 4.09 µM
94.6%	CC(C)=CCC[C@@]1(C)CC=C(COC(=O)CCC(=O)O)c2nnc(C)cc2[C@@H]1/C=C/OC(=O)C=C(C)C	IC50 (MCF7): > 40 µM; IC50 (A549): > 40 µM; IC50 (SMMC-7721): > 40 µM; IC50 (HL-60): > 40 µM; IC50 (SW480): > 40 µM; IC50 [1]: 0.27 µM
66.6%	CC(C)=CCC[C@@]1(C)CC=C(COC(=O)c2ccc3cc[nH]c3c2)c2nnc(C)cc2[C@@H]1/C=C/OC(=O)C=C(C)C	IC50 [1]: 4.57 µM
10.6%	CC(C)=CCC[C@@]1(C)CC=C(CO)c2[nH]c(C)cc2[C@@H]1/C=C/OC(=O)C=C(C)C	–
0.69%	CC(=O)C[C@@H]1C(=O)C(CO)=CC[C@](C)(CCC(=O)C(C)C)[C@H]1/C=C/OC(=O)C=C(C)C	–
34.9%	CC(=O)C[C@@H]1C(=O)C(COC(C)=O)=CC[C@](C)(CCC=C(C)C)[C@H]1/C=C/OC(=O)C=C(C)C	–
64.5%	CC(=O)C[C@@H]1C(=O)C(CNc2ccc(F)cc2)=CC[C@](C)(CCC=C(C)C)[C@H]1/C=C/OC(=O)C=C(C)C	–
53.1%	CC(=O)C[C@@H]1C(=O)C(CCl)=CC[C@](C)(CCC=C(C)C)[C@H]1/C=C/OC(=O)C=C(C)C	–
22.8%	CC(=O)C[C@@H]1C(=O)[C@H](CO)CC[C@](C)(CCCC(C)C)[C@H]1/C=C/OC(=O)C=C(C)C	–
50.8%	CC(C)=CCC[C@@]1(C)CC=C(COC(=O)c2ccc3cc[nH]c3c2)c2[nH]c(C)cc2[C@@H]1/C=C/OC(=O)C=C(C)C	–
93.6%	CC(C)=CCC[C@]1(C)/C=C/[C@@H](OC(=O)C=C(C)C)[C@](C)(O)/C=C/C(=O)/C(CN2CCN(C)CC2)=C\C1	IC50 [1]: 0.98 µM
84.3%	CC(=O)C[C@@H]1C(=O)C(CF)=CC[C@](C)(CCC=C(C)C)[C@H]1/C=C/OC(=O)C=C(C)C	IC50 [1]: 4.1 µM
45%	CC(C)=CCC[C@@]1(C)CC=C(C=O)c2[nH]c(C)c(Cl)c2[C@@H]1/C=C/OC(=O)C=C(C)C	–
54.1%	CC(C)=CCC[C@@]1(C)CC=C(COC(=O)CCC(=O)Nc2ccc(F)cc2)c2nnc(C)cc2[C@@H]1/C=C/OC(=O)C=C(C)C	–
82.3%	CC(C)=CCC[C@@]1(C)CC=C(CO)c2oc(C)cc2[C@@H]1/C=C/OC(=O)C=C(C)C	–
–	CO[C@@H]1[C@@H](OC(N)=O)[C@@H](O)[C@H](Oc2ccc3c(O)c(NC(=O)c4ccc(O)c(CC=C(C)C)c4)c(=O)oc3c2C)OC1(C)C [NOVOBIOCIN]	IC50 [1]: 468 µM; inhibition (Reticulocyte [3]): 78.9%
42.9%	CC(C)=CCC[C@@]1(C)CC=C(COC(=O)c2ccc3cc[nH]c3c2)c2oc(C)cc2[C@@H]1/C=C/OC(=O)C=C(C)C	–
30%	CC(=O)C[C@@H]1C(=O)C(CO)=CC[C@](C)(CCC=C(C)C)[C@H]1/C=C/OC(=O)C=C(C)C	–

inhibition (Reticulocyte [2])	SMILES	other results
68.8%	CC(C)=CCC[C@@]1(C)CC=C(CF)c2[nH]c(C)cc2[C@@H]1/C=C/OC(=O)C=C(C)C	IC50 [1]: 3.61 µM
32.6%	CC(C)=CCC[C@@]1(C)CC=C(CCl)c2oc(C)cc2[C@@H]1/C=C/OC(=O)C=C(C)C	–
85.9%	CC(C)=CCC[C@@]1(C)CC=C(CCl)c2nnc(C)cc2[C@@H]1/C=C/OC(=O)C=C(C)C	IC50 [1]: 2.37 µM
57%	CC(C)=CCC[C@@]1(C)CC=C(COC(=O)CCC(=O)Nc2ccc(F)cc2)c2oc(C)cc2[C@@H]1/C=C/OC(=O)C=C(C)C	–
–	CC(=O)O[C@H]1C(=O)[C@@]2(C)[C@H]([C@H](OC(=O)c3ccccc3)[C@]3(O)C[C@H](OC(=O)[C@H](O)[C@@H](NC(=O)c4ccccc4)c4ccccc4)C(C)=C1C3(C)C)[C@]1(OC(C)=O)CO[C@@H]1C[C@@H]2O [PACLITAXEL]	IC50 (MCF7): < 0.008 µM; IC50 (A549): < 0.008 µM; IC50 (SMMC-7721): 0.097 µM; IC50 (HL-60): < 0.008 µM; IC50 (SW480): < 0.008 µM
48%	CC(C)=CCC[C@@]1(C)CC=C(COC(=O)CCC(=O)Nc2ccc(F)cc2)c2[nH]c(C)cc2[C@@H]1/C=C/OC(=O)C=C(C)C	–
88.2%	CC(C)=CCC[C@@]1(C)CC=C(COC(=O)CCC(=O)O)c2oc(C)cc2[C@@H]1/C=C/OC(=O)C=C(C)C	IC50 (MCF7): > 40 µM; IC50 (A549): > 40 µM; IC50 (SMMC-7721): > 40 µM; IC50 (HL-60): 16.9 µM; IC50 (SW480): > 40 µM; IC50 [1]: 0.27 µM; inhibition [4]: Dose-Dependent Effect; inhibition [5]: Dose-Dependent Effect; Activity [6]: Active
14.2%	CC(=O)C[C@@H]1C(=O)C(CN2CCOCC2)=CC[C@](C)(CCC=C(C)C)[C@H]1/C=C/OC(=O)C=C(C)C	–
6.37%	CC(C)=CCC[C@@]1(C)CC=C(CN2CCOCC2)c2[nH]c(C)cc2[C@@H]1/C=C/OC(=O)C=C(C)C	–
36.6%	CC(=O)C[C@@H]1C(=O)C(CO)=CC[C@](C)(CCC2OC2(C)C)[C@H]1/C=C/OC(=O)C=C(C)C (stereo partly specified)	–
37.1%	CC(C)=CCC[C@@]1(C)CC=C(Cn2ccnc2)c2oc(C)cc2[C@@H]1/C=C/OC(=O)C=C(C)C	–
14.2%	CC(C)=CCC[C@@]1(C)CC=C(CO)[C@H]2O[C@](C)(O)C[C@H]2[C@@H]1/C=C/OC(=O)C=C(C)C	–
36.9%	CC(=O)C[C@@H]1C(=O)C(COC(=O)c2ccccc2)=CC[C@](C)(CCC=C(C)C)[C@H]1/C=C/OC(=O)C=C(C)C	–
13.1%	CC(C)=CCC[C@@]1(C)CC=C(CNc2ccc(F)cc2)c2oc(C)cc2[C@@H]1/C=C/OC(=O)C=C(C)C	–
49.3%	CC(C)=CCC[C@@]1(C)CC=C(CNc2ccc(F)cc2)c2nnc(C)cc2[C@@H]1/C=C/OC(=O)C=C(C)C	–
40.3%	CC(=O)C[C@@H]1C(=O)C(COC(=O)C2CCCCC2)=CC[C@](C)(CCC=C(C)C)[C@H]1/C=C/OC(=O)C=C(C)C	–
13.3%	CC(C)=CCC[C@@]1(C)CC=C(CO)C(=O)[C@H]2C[C@@](C)(O)[C@@H](C=O)[C@@H]21	–
23.6%	CC(C)=CCC[C@@]1(C)CC=C(CO)c2nnc(C)cc2[C@@H]1/C=C/OC(=O)C=C(C)C	–
0.32%	CC(=O)C[C@@H]1C(=O)C(CS)=CC[C@](C)(CCC=C(C)C)[C@H]1/C=C/OC(=O)C=C(C)C	–
71%	CC(C)=CCC[C@@]1(C)CC=C(COC(=O)CCC(=O)O)c2[nH]c(C)cc2[C@@H]1/C=C/OC(=O)C=C(C)C	IC50 [1]: 6.05 µM
23.8%	CC(=O)C[C@@H]1C(=O)C(CN2CCN(C(C)C)CC2)=CC[C@](C)(CCC=C(C)C)[C@H]1/C=C/OC(=O)C=C(C)C	–
